Assay results taken from US20230263822A1, “MODULATION OF FACTOR 11 EXPRESSION” (Ionis Pharmaceuticals, Inc., priority 2008, published 2023).
Strand notation (5' to 3'): a small letter for the sugar, then the base; units joined by * are phosphorothioate-linked, units joined directly phosphodiester-linked; [ ] holds rarer units or linkages, { } end groups; capitals alone tell only the bases. e = 2'-O-(2-methoxyethyl) (MOE); [5mC] = 5-methylcytosine; d = 2'-deoxy (DNA)

Key:
platelet aggregation = experiment: Platelet aggregation assay, ADP and/or collagen (Example 45); assay type: in vivo, cynomolgus monkeys; details: escalating dose regimen
Experimental: (§1) Groups, each consisting of two male and three female monkeys, were injected subcutaneously with ISIS 416838, ISIS 416850, ISIS 416858, ISIS 416864, or ISIS 417002 in escalating doses. Antisense oligonucleotide was administered to the monkeys at 5 mg/kg three times per a week for week 1; 5 mg/kg twice per week for weeks 2 and 3; 10 mg/kg three times per week for week 4; 10 mg/kg twice per week for weeks 5 and 6; 25 mg/kg three times per week for week 7; and 25 mg/kg twice per week for weeks 8, 9, 10, 11, and 12. One control group, consisting of two male and three female monkeys, was injected subcutaneously with PBS according to the same dosing regimen. An additional experimental group, consisting of two male and three female monkeys, was injected subcutaneously with ISIS 416850 in a chronic, lower dose regimen. Antisense oligonucleotide was administered to the monkeys at 5 mg/kg three times per week for week 1; 5 mg/kg twice per week for week 2 and 3; 10 mg/kg three times per week for week 4; and 10 mg/kg twice per week for weeks 5 to 12. Body weights were measured weekly. Blood samples were collected 14 days and 5 days before the start of treatment and subsequently once per week for Factor 11 protein activity analysis in plasma, fibrinogen measurement, PT and aPTT measurements, bleeding times, and measurement of various hematologic factors. On day 85, the monkeys were euthanized by exsanguination while under deep anesthesia, and organs harvested for further analysis.
Platelet aggregation was initiated by adding 1 mmol/L ADP and/or 3 μg collagen (depending on the collection day, as outlined in Table 121) to plasma samples, and was allowed to proceed for 10 minutes. Aggregation was characterized by recording the change in the electrical resistance or impedance and the change in the initial slope of aggregation after platelet shape change. The aggregation test was performed twice per sample on each collection day and the average value was taken. The ISIS oligonucleotide, ISIS 416850, given with the chronic dose regimen is distinguished from the other oligonucleotides with an asterisk (*).

[1] = Liver function, ALT, AST, bilirubin in cynomolgus monkeys (Example 45); assay type: in vivo; details: plasma, escalating dose regimen
Experimental: as §1
The ISIS oligonucleotide, ISIS 416850, given with the chronic dose regimen is distinguished from the other oligonucleotides with an asterisk (*).

[2] = Tolerability in Sprague-Dawley rats: hematology assays (Example 35); details: 50 mg/kg s.c. twice per week for 6 weeks
Experimental: A control group of four Sprague Dawley rats was injected subcutaneously with PBS twice per week for 6 weeks. Body weight measurements were taken before and throughout the treatment period. Urine samples were taken before the start of treatment. Three days after the last dose, urine samples were taken and the rats were sacrificed. Organ weights were measured and blood was collected for further analysis.
Blood obtained from all rat groups were sent to Antech Diagnostics for hematocrit (HCT), mean corpuscular volume (MCV), mean corpuscular hemoglobin (MCV), and mean corpuscular hemoglobin concentration (MCHC) measurements and analyses, as well as measurements of various blood cells, such as WBC (neutrophils, lymphocytes and monocytes), RBC, and platelets as well as hemoglobin content.

[3] = Tolerability in Sprague-Dawley rats: hematology assays (Example 44); assay type: in vivo; details: 50 mg/kg s.c. twice per week for 6 weeks, blood
[4] = Tolerability in CD1 mice: hematology assays (Example 43); assay type: in vivo; details: 50 mg/kg s.c. twice per week for 6 weeks, blood
[5] = Tolerability in CD1 mice: liver function (Example 43); assay type: in vivo; set-up: Albumin: unit not given here; details: 50 mg/kg s.c. twice per week for 6 weeks, plasma

Work on “ISIS 417002: MOE gapmer, nucleobases 1275 to 1318 of SEQ ID NO: 1 (Table 8) (antisense GGTGCACAGTTTCTGGCAGG; MOE gapmer, wing and gap sizes not given here)” yielded a platelet aggregation (platelet aggregation; day 15 (with ADP)) of 16 Ohms, a platelet aggregation (platelet aggregation; day 36 (with ADP)) of 13.9 Ohms and a platelet aggregation (platelet aggregation; day 43 (with collagen)) of 19 Ohms. The platelet aggregation (platelet aggregation; day 57 (with ADP)) was 18 Ohms, the platelet aggregation (platelet aggregation; day 64 (with collagen)) was 18 Ohms and the platelet aggregation (platelet aggregation; day 78 (with ADP)) was 18 Ohms. For the same substance, the platelet aggregation (platelet aggregation; day 85 (with ADP)) was 22 Ohms, the platelet aggregation (platelet aggregation; day 85 (with collagen)) was 24 Ohms and the platelet aggregation (platelet aggregation; day −5 (with collagen)) was 21 Ohms. For the same substance, the ALT ([1]; day 22) was 36 IU/L, the AST ([1]; day 22) was 44 IU/L and the Bilirubin ([1]; day 22) was 0.20 mg/dL. For the same substance, the ALT ([1]; day 43) was 35 IU/L, the AST ([1]; day 43) was 42 IU/L and the Bilirubin ([1]; day 43) was 0.21 mg/dL. It also gave an ALT ([1]; day 64) of 42 IU/L, an AST ([1]; day 64) of 37 IU/L and a Bilirubin ([1]; day 64) of 0.14 mg/dL. It also gave an ALT ([1]; day 85) of 116 IU/L, an AST ([1]; day 85) of 50 IU/L and a Bilirubin ([1]; day 85) of 0.12 mg/dL. The ALT ([1]; day −14) was 61 IU/L, the AST ([1]; day −14) was 114 IU/L and the Bilirubin ([1]; day −14) was 0.26 mg/dL. For the same substance, the Platelets [2] was 7 10^3/μL, the RBC [2] was 5 and the WBC [2] was 23 nL⁻¹. It also gave a lymphocytes [2] of 4%, a monocytes [2] of 25% and a neutrophils [2] of 22%. It also gave an HCT ([2]; title says % control) of 7%, an MCH ([2]; title says % control) of 3 and an MCHC ([2]; title says % control) of 5%. It also gave an MCV ([2]; title says % control) of 7.

Substance “ISIS 449707: 3-8-3, 4-8-4, 2-10-2, 3-10-3 or 4-10-4 MOE microwalk gapmer (Table 46) (antisense e[5mC]*eA*e[5mC]*eA*dG*dT*dT*dT*d[5mC]*dT*dG*dG*e[5mC]*eA*eG*eG)” has a Platelets [3] of 722 nL⁻¹, an RBC [3] of 6.0 pL⁻¹ and a WBC [3] of 20 nL⁻¹. For the same substance, the hematocrit [3] was 40%, the hemoglobin [3] was 12.0 g/dL and the lymphocytes [3] was 91%. It also gave a monocytes [3] of 2%, a neutrophils [3] of 6% and a Platelets [4] of 1386 nL⁻¹. For the same substance, the RBC [4] was 8.4 pL⁻¹, the WBC [4] was 6 nL⁻¹ and the hematocrit [4] was 45%. It also gave a hemoglobin [4] of 12.4 g/dL, a lymphocytes [4] of 85% and a monocytes [4] of 3%. It also gave a neutrophils [4] of 11%, an ALT [5] of 41 IU/L and an AST [5] of 62 IU/L. It also gave an Albumin [5] of 2.3 and a Bilirubin [5] of 0.19 mg/dL.

Work on “ISIS 449708: 3-8-3, 4-8-4, 2-10-2, 3-10-3 or 4-10-4 MOE microwalk gapmer (Table 46) (antisense eA*e[5mC]*eA*dG*dT*dT*dT*d[5mC]*dT*dG*dG*e[5mC]*eA*eG)” yielded a Platelets [3] of 925 nL⁻¹, an RBC [3] of 6.6 pL⁻¹ and a WBC [3] of 22 nL⁻¹. For the same substance, the hematocrit [3] was 40%, the hemoglobin [3] was 12.2 g/dL and the lymphocytes [3] was 92%. The monocytes [3] was 2%, the neutrophils [3] was 6% and the Platelets [4] was 1395 nL⁻¹. The RBC [4] was 9.2 pL⁻¹, the WBC [4] was 7 nL⁻¹ and the hematocrit [4] was 48%. For the same substance, the hemoglobin [4] was 13.2 g/dL, the lymphocytes [4] was 77% and the monocytes [4] was 5%. The neutrophils [4] was 17%, the ALT [5] was 66 IU/L and the AST [5] was 103 IU/L. It also gave an Albumin [5] of 2.8 and a Bilirubin [5] of 0.17 mg/dL.

For “ISIS 449709: 3-8-3, 4-8-4, 2-10-2, 3-10-3 or 4-10-4 MOE microwalk gapmer (Table 46) (antisense eG*e[5mC]*eA*e[5mC]*dA*dG*dT*dT*dT*d[5mC]*dT*dG*dG*d[5mC]*eA*eG*eG*e[5mC])”, the Platelets [3] was 631 nL⁻¹, the RBC [3] was 6.9 pL⁻¹ and the WBC [3] was 14 nL⁻¹. It also gave a hematocrit [3] of 41%, a hemoglobin [3] of 12.6 g/dL and a lymphocytes [3] of 91%. For the same substance, the monocytes [3] was 3%, the neutrophils [3] was 5% and the Platelets [4] was 1447 nL⁻¹. It also gave an RBC [4] of 9.2 pL⁻¹, a WBC [4] of 5 nL⁻¹ and a hematocrit [4] of 49%. The hemoglobin [4] was 13.2 g/dL, the lymphocytes [4] was 76% and the monocytes [4] was 4%. It also gave a neutrophils [4] of 19%, an ALT [5] of 62 IU/L and an AST [5] of 83 IU/L. For the same substance, the Albumin [5] was 2.8 and the Bilirubin [5] was 0.18 mg/dL.

“ISIS 449710: 3-8-3, 4-8-4, 2-10-2, 3-10-3 or 4-10-4 MOE microwalk gapmer (Table 46) (antisense e[5mC]*eA*e[5mC]*dA*dG*dT*dT*dT*d[5mC]*dT*dG*dG*d[5mC]*eA*eG*eG)” gave a Platelets [3] of 509 nL⁻¹, an RBC [3] of 6.3 pL⁻¹ and a WBC [3] of 13 nL⁻¹. The hematocrit [3] was 41%, the hemoglobin [3] was 12.5 g/dL and the lymphocytes [3] was 91%. For the same substance, the monocytes [3] was 2%, the neutrophils [3] was 6% and the Platelets [4] was 1245 nL⁻¹. It also gave an RBC [4] of 9.1 pL⁻¹, a WBC [4] of 7 nL⁻¹ and a hematocrit [4] of 48%. For the same substance, the hemoglobin [4] was 13.5 g/dL, the lymphocytes [4] was 81% and the monocytes [4] was 3%. The neutrophils [4] was 15%, the ALT [5] was 43 IU/L and the AST [5] was 95 IU/L. The Albumin [5] was 2.8 and the Bilirubin [5] was 0.18 mg/dL.

Work on “ISIS 449711: 3-8-3, 4-8-4, 2-10-2, 3-10-3 or 4-10-4 MOE microwalk gapmer (Table 46) (antisense eA*e[5mC]*dA*dG*dT*dT*dT*d[5mC]*dT*dG*dG*d[5mC]*eA*eG)” yielded a Platelets [3] of 919 nL⁻¹, an RBC [3] of 6.4 pL⁻¹ and a WBC [3] of 13 nL⁻¹. The hematocrit [3] was 43%, the hemoglobin [3] was 12.6 g/dL and the lymphocytes [3] was 90%. It also gave a monocytes [3] of 2%, a neutrophils [3] of 7% and a Platelets [4] of 1225 nL⁻¹. The RBC [4] was 9.0 pL⁻¹, the WBC [4] was 6 nL⁻¹ and the hematocrit [4] was 48%. It also gave a hemoglobin [4] of 13.3 g/dL, a lymphocytes [4] of 79% and a monocytes [4] of 6%. For the same substance, the neutrophils [4] was 15%, the ALT [5] was 52 IU/L and the AST [5] was 83 IU/L. For the same substance, the Albumin [5] was 2.8 and the Bilirubin [5] was 0.22 mg/dL.
